# Test results as given in patent publication US9126933B2, “Soft PDE4 inhibitors” (Amakem NV, priority 2011, dated 2015).
# What was measured:
# in vitro = settings: PAMPA, pH 7.4
# Method: (§3) The capacity of compounds of the invention to cross a lipophilic membrane was evaluated in a Pampa assay, using an assay plate containing structured layers of phospholipids supported on a PVDF filter (Benton Dickinson). […] Each compound was tested in triplicate and was prepared as a 10 μM solution in 10 mM PBS pH=7.4 buffer containing 2% DMSO. Compounds were dosed in the donor chamber of the assay plate and incubated for 5 hours, at room temperature. Additionally, an equilibrium solution plate containing 6 μM of test compound was prepared. Test compound concentration in donor and acceptor chamber and in the equilibrium plate was quantified using HPLC-MS/MS. The subsequently calculated permeability coefficients were reported as Papp.
# recombinant PDE4B1 = biological target: T1, recombinant PDE4B1 (Homo sapiens, UniProt Q07343); test: PDE4 inhibitory activity screening, PDE4B1 (HTRF, cAMP substrate); assay type: biochemical; settings: 40 nM cAMP, 30 minutes, room temperature
# T1 construct: host or cells: Sf9 insect cells
# Method: (§1) Various concentrations of the test compounds were incubated with recombinant PDE4B1 or PDE4D2 (isolated from Sf9 cells), using 40 nM cAMP as enzyme substrate. Incubation time was set to 30 minutes. The reaction was carried out at room temperature. At the end of the incubation time, residual cAMP concentration was determined, using HTRF as detection method.
# (§2) The IC50 values (concentration causing a half-maximal inhibition of control specific activity) and Hill coefficients (nH) were determined by non-linear regression analysis of the inhibition curves generated with mean replicate values using Hill equation curve fitting (Y=D+[(A−D)/(1+(C/C50)nH)], where Y=specific activity, D=minimum specific activity, A=maximum specific activity, C=compound concentration, C50=IC50 and nH=slope factor).
# recombinant PDE4D2 = biological target: T2, recombinant PDE4D2 (Homo sapiens, UniProt Q08499); test: PDE4 inhibitory activity screening, PDE4D2 (HTRF, cAMP substrate); assay type: biochemical; settings: 40 nM cAMP, 30 minutes, room temperature
# T2 construct: host or cells: Sf9 insect cells
# Method: as §1, §2
# [1] = Stability assay in human plasma; assay type: in vitro ADME; settings: 1 μM compound
# Method: Compounds are incubated at a concentration of 1 μM in rat (mice/rabbit/dog/rabbit) or human plasma. Samples are taken at fixed time points and the remnant of compound is determined by LC-MS/MS after protein precipitation. Half life of the compound is expressed in minutes.
# [2] = Stability towards drug metabolizing enzymes in lung S9; assay type: in vitro ADME; settings: lung S9 (from smokers); human lung S9, 1 μM compound, cofactors NADPH, UDPGA, PAPS, GSH
# Method: A 1 μM solution of the compounds is incubated with a reaction mixture containing lung S9 (from smokers) as well as the cofactors NADPH, UDPGA, PAPS and GSH. Samples are collected at 0, 15, 30 and 60 minutes post incubation. Negative control samples incubated with […] and S9 fraction in the absence of cofactors are run in parallel. By using LC-MS/MS analysis, the percent of compounds remaining at each time point, the metabolic half-life of the compounds (expressed in minutes) and the metabolic half-life of the control compounds are determined.
# [3] = Solubility in aqueous solution (PBS pH 7.4); assay type: physicochemical; settings: phosphate buffer saline (PBS), pH 7.4, aqueous buffer, kinetic from dmso stock; PBS pH7.4, 24 h, room temperature, theoretical concentration 200 μM
# Method: Using a 10 mM stock solution of each compound in 100% DMSO, dilutions were prepared to a theoretical concentration of 200 μM in both phosphate buffer saline (PBS), pH7.4 and in 100% DMSO (as reference). Solutions (triplicates) were incubated at room temperature for 24 h on a shaker at 100 rpm. The solutions were then centrifugated at 13000 rpm for 30 min and the supernatant was further diluted to 2 μM in methanol. The supernatant was then analyzed by LC-MSMS. The concentration of compound in PBS supernatant was determined by comparing the MS peak area with that of the reference solution in DMSO.
# [4] = Membrane permeability, Pampa assay; settings: for Papp (Pampa; 10^−6 cm/s): 10 μM in 10 mM PBS pH=7.4, 2% DMSO, 5 hours, room temperature
# Method: as §3
# T1 sequence (Q07343 whole entry): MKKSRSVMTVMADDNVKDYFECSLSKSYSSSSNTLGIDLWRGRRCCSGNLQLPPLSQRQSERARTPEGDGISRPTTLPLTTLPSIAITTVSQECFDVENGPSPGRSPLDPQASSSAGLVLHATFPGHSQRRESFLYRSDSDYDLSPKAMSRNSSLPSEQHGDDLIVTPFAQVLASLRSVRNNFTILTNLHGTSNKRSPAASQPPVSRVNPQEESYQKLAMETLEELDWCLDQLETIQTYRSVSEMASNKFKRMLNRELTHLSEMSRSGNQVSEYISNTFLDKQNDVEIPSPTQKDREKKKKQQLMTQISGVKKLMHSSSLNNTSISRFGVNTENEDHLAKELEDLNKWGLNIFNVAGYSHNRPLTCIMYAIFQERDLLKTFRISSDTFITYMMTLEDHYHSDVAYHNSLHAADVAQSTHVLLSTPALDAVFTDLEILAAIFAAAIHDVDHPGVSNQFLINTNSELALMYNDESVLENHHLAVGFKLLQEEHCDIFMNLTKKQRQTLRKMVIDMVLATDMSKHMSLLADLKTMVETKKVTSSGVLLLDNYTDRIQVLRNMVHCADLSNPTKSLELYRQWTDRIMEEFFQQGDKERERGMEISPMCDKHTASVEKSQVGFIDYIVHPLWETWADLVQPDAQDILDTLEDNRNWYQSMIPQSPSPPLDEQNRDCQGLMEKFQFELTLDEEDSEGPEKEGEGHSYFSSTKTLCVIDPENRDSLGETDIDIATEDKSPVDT
# T2 sequence (Q08499 303-809 limits assumed): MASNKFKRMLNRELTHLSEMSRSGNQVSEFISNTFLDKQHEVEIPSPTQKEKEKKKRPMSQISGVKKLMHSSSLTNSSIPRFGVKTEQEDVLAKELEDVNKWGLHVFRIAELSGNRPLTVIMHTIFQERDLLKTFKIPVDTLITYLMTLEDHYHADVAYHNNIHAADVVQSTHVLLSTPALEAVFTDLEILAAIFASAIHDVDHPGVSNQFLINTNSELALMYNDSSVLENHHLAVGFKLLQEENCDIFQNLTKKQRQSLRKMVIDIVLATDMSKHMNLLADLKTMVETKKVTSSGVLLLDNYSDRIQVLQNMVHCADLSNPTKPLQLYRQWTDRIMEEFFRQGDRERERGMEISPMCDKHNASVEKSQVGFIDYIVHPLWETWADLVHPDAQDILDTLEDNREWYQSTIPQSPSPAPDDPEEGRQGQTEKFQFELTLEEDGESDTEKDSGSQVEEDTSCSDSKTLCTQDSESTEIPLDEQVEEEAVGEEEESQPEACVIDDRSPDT
SMILES,"Papp at 5 h, 10 μM (in vitro) [×10⁻⁶ cm/s]",IC50 (recombinant PDE4B1) [nM],IC50 (recombinant PDE4D2) [nM],half-life at 1 μM [1] [min],half-life at 1 μM [2] [min],solubility at 24 h [3] [µM],Papp (Pampa; 10^−6 cm/s) [4],"Papp at 5 h, 10 μM ([4]; PAMPA, pH 7.4) [×10⁻⁶ cm/s]"
COC(=O)[C@H]1[C@H]2C[C@@H]3c4[nH]c5cc(OC)ccc5c4CCN3C[C@H]2C[C@@H](OC(=O)c2cc(OC)c(OC)c(OC)c2)[C@@H]1OC [Reserpine],0.008,–,–,–,–,–,–,–
"O=C(Nc1c(Cl)cncc1Cl)c1ccc(OC(F)F)c(OCCCCSC2CCOC2=O)c1 (centres unmarked) [Compound 12, N-(3,5-dichloropyridin-4-yl)-4-(difluoromethoxy)-3-{4-[(2-oxotetrahydrofuran-3-yl)thio]butoxy}benzamide]",–,< 10,< 10,< 15,> 60,10 to 100,2.5 10^−6 cm/s,–
O=C(Nc1c(Cl)cncc1Cl)c1ccc(OC(F)F)c(OCCCNC2CCOC2=O)c1 (centres unmarked) [Compound 14],–,< 10,10 to 100,< 15,> 60,10 to 100,7.3 10^−6 cm/s,–
"O=C(Nc1c(Cl)cncc1Cl)c1ccc(OC(F)F)c(OCCCCNC2CCOC2=O)c1 (centres unmarked) [Compound 11, N-(3,5-dichloropyridin-4-yl)-4-(difluoromethoxy)-3-{4-[(2-oxotetrahydrofuran-3-yl)amino]butoxy}benzamide]",–,< 10,< 10,< 15,> 60,10 to 100,–,5
CC(C)NCC(O)COc1cccc2ccccc12 (centres unmarked) [Propranolol],9.5,–,–,–,–,–,–,–
